Measurements reported in ChEMBL document CHEMBL1201862, “PubChem BioAssay data set” (2004).
Active and inactive are the calls of the source.

Assays:
[1] = biological target: T1, High affinity choline transporter 1 (Homo sapiens, UniProt Q9GZV3); experiment: CHT inhibitors, dose response, cell-based, 5-point CRC, membrane potential dye (AID 504840); assay type: functional
T1 sequence (Q9GZV3 whole entry): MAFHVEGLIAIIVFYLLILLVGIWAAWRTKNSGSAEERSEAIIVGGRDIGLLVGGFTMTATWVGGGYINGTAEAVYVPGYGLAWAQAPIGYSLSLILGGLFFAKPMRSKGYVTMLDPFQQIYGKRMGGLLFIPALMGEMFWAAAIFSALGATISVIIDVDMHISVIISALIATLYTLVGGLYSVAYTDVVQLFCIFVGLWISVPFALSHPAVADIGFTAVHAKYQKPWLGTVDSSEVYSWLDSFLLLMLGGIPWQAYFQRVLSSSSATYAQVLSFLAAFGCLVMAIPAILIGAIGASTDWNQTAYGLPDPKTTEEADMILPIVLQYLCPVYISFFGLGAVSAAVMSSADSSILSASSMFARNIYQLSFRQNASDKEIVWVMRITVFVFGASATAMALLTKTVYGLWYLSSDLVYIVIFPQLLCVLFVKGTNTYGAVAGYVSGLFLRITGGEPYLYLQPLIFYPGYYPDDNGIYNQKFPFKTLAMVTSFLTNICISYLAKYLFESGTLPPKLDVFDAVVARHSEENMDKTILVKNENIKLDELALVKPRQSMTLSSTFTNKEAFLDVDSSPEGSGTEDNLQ

[2] = biological target: T1, High affinity choline transporter 1; experiment: CHT inhibitors, dose response, cell-based, 10-point CRC, membrane potential dye (AID 588401); assay type: functional;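 also: membrane potential dye fluorescence of choline-evoked depolarization via CHT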
Cytochrome P450 2C9 = Cytochrome P450 2C9 (Homo sapiens, UniProt P11712)
Sequence of Cytochrome P450 2C9 (P11712 whole entry): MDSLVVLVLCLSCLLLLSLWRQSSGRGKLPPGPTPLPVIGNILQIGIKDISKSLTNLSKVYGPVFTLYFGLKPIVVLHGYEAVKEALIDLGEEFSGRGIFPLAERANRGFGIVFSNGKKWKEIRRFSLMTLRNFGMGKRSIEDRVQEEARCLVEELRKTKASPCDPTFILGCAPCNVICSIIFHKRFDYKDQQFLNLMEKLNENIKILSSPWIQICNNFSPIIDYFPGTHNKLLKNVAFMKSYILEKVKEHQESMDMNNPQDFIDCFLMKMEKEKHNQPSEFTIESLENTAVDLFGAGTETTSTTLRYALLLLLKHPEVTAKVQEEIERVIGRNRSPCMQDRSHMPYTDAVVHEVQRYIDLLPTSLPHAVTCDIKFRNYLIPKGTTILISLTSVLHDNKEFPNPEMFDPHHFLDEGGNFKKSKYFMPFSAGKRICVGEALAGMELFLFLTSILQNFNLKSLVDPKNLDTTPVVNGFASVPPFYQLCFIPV

Cytochrome P450 1A2 = biological target: T2, Cytochrome P450 1A2 (Homo sapiens, UniProt P05177);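 also: PubChem cytochrome P450 panel assay, CYP1A2 panel member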
T2 sequence (P05177 whole entry): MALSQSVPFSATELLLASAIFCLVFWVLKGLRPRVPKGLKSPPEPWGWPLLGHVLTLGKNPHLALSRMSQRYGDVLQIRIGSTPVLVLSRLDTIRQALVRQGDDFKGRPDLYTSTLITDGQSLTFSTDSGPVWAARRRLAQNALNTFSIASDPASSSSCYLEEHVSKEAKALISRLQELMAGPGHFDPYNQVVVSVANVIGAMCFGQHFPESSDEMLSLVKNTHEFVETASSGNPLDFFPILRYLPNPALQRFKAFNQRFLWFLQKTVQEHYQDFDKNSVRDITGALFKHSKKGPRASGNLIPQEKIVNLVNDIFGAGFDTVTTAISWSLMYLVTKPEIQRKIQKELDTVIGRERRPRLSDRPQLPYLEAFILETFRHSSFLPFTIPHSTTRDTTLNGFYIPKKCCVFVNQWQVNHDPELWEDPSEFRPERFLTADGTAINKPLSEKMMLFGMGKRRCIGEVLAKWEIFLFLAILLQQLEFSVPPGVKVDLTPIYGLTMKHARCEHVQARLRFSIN

[3] = Luminescence Cell-Based Dose Response HTS to Identify Activators of Luciferase Translation or Activity in H4 […] Cells. [Related pubchem assays: 1829 (Project Summary), 1814 (Primary HTS)]; assay type: functional
H4 = experiment: Luminescence Cell-Based Dose Response HTS to Identify Activators of 5'UTR Stem-Loop Driven Prion Protein mRNA Translation in H4 Neuroglioblastoma Cells. [Related pubchem assays: 1829 (Project Summary), 1814 (Primary HTS)]; assay type: functional; conditions: Homo sapiens
[4] = biological target: T3, Long-chain-fatty-acid--AMP ligase FadD28 (Mycobacterium tuberculosis, UniProt P9WQ59); experiment: Fluorescence polarization aasay to screen for inhibitors that compete for the binding of FadD28 to a bisubstrate Measured in Biochemical System Using Plate Reader - 2147-01_Inhibitor_Dose_CherryPick_Activity.; assay type: functional, Mycobacterium tuberculosis H37Rv
T3 sequence (P9WQ59 whole entry): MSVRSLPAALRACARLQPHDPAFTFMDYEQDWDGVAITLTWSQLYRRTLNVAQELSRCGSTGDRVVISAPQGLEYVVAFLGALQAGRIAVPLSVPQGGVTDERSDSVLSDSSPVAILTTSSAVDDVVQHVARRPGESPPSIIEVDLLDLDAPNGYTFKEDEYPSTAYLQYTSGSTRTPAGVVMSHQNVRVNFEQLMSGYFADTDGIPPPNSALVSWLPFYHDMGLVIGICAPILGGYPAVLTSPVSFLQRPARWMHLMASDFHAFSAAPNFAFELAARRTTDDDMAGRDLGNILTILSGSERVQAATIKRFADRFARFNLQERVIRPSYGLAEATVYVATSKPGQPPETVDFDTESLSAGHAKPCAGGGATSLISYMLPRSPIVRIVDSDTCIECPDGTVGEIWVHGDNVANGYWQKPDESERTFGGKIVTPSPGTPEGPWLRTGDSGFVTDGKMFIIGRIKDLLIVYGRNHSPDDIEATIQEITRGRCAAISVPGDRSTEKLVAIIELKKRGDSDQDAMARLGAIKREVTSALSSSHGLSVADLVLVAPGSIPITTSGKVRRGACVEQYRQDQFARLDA

Cytochrome P450 2D6 = Cytochrome P450 2D6 (Homo sapiens, UniProt P10635);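 also: CYP2D6 member of a cytochrome P450 panel assay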
Sequence of Cytochrome P450 2D6 (P10635 whole entry): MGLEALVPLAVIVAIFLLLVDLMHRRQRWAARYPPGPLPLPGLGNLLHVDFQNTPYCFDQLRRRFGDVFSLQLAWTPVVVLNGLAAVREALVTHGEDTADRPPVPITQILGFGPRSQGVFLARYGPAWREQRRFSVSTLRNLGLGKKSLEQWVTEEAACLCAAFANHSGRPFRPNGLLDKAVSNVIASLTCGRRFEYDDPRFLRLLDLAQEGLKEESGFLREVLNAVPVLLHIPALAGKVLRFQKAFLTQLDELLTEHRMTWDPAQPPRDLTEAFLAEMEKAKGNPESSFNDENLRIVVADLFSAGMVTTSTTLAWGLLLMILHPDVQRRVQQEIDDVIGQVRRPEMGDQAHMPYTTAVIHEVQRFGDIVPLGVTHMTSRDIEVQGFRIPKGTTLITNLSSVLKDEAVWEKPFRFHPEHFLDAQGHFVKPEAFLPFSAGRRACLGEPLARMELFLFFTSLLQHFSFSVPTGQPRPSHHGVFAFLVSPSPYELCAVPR

[5] = inhibitors of SNCA 5'UTR-driven reporter translation, confirmation, H4 neuroglioma cells, luminescence (AID 1988); assay type: functional, cell-based
[6] = Luminescence Cell-Based Dose Response HTS to Identify Inhibitors of 5'UTR Stem-Loop Driven Prion Protein mRNA Translation in H4 Neuroglioblastoma Cells. [Related pubchem assays: 1827 (Project Summary), 1813 (Primary HTS)]; assay type: functional
[7] = inhibitors of firefly luciferase expression or activity, dose response, H4 neuroglioma cells, luminescence (AID 1990); assay type: functional, cell-based
Vero = experiment: cells; assay type: functional; conditions: Chlorocebus sabaeus
[8] = growth suppression of beta-catenin-knockout colon cells, dose response, cell-based, HCT116, human colon tumor (AID 1045); assay type: functional;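 also: HCT116 colon tumor cells with beta catenin knocked out; cells exposed to compound for 60 hours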
[9] = growth suppression of PTEN-null colon cells, dose response, cell-based, HCT116 PTEN knockout (AID 1047); assay type: functional;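 also: HCT116 colon tumor cells with PTEN knocked out; cells exposed to compound for 60 hours before readout; potency for loss of cell viability measured by luminescence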
[10] = inhibitors of intracellular T. cruzi replication, confirmation, NIH3T3 host cells, beta-gal luminescence (AID 2044); assay type: functional, cell-based;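 also: intracellular parasites grown in NIH/3T3 mouse fibroblasts as host cells; luminescent beta-galactosidase reporter signal from transgenic T. cruzi replicating inside host cells; inhibitors lower the luminescence signal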
[11] = cytotoxicity toward NIH3T3 fibroblasts, dose response, counter-screen, cell-based, ATP luminescence, mouse fibroblasts (AID 2010); assay type: functional;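 also: cells exposed to compound for about 90 hours before reading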
[12] = biological target: Voltage-dependent T-type calcium channel subunit alpha-1H (Homo sapiens, UniProt O95180); assay type: functional;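 also: channel activity triggered by adding a high calcium stimulation buffer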
Sequence of Voltage-dependent T-type calcium channel subunit alpha-1H (O95180 whole entry): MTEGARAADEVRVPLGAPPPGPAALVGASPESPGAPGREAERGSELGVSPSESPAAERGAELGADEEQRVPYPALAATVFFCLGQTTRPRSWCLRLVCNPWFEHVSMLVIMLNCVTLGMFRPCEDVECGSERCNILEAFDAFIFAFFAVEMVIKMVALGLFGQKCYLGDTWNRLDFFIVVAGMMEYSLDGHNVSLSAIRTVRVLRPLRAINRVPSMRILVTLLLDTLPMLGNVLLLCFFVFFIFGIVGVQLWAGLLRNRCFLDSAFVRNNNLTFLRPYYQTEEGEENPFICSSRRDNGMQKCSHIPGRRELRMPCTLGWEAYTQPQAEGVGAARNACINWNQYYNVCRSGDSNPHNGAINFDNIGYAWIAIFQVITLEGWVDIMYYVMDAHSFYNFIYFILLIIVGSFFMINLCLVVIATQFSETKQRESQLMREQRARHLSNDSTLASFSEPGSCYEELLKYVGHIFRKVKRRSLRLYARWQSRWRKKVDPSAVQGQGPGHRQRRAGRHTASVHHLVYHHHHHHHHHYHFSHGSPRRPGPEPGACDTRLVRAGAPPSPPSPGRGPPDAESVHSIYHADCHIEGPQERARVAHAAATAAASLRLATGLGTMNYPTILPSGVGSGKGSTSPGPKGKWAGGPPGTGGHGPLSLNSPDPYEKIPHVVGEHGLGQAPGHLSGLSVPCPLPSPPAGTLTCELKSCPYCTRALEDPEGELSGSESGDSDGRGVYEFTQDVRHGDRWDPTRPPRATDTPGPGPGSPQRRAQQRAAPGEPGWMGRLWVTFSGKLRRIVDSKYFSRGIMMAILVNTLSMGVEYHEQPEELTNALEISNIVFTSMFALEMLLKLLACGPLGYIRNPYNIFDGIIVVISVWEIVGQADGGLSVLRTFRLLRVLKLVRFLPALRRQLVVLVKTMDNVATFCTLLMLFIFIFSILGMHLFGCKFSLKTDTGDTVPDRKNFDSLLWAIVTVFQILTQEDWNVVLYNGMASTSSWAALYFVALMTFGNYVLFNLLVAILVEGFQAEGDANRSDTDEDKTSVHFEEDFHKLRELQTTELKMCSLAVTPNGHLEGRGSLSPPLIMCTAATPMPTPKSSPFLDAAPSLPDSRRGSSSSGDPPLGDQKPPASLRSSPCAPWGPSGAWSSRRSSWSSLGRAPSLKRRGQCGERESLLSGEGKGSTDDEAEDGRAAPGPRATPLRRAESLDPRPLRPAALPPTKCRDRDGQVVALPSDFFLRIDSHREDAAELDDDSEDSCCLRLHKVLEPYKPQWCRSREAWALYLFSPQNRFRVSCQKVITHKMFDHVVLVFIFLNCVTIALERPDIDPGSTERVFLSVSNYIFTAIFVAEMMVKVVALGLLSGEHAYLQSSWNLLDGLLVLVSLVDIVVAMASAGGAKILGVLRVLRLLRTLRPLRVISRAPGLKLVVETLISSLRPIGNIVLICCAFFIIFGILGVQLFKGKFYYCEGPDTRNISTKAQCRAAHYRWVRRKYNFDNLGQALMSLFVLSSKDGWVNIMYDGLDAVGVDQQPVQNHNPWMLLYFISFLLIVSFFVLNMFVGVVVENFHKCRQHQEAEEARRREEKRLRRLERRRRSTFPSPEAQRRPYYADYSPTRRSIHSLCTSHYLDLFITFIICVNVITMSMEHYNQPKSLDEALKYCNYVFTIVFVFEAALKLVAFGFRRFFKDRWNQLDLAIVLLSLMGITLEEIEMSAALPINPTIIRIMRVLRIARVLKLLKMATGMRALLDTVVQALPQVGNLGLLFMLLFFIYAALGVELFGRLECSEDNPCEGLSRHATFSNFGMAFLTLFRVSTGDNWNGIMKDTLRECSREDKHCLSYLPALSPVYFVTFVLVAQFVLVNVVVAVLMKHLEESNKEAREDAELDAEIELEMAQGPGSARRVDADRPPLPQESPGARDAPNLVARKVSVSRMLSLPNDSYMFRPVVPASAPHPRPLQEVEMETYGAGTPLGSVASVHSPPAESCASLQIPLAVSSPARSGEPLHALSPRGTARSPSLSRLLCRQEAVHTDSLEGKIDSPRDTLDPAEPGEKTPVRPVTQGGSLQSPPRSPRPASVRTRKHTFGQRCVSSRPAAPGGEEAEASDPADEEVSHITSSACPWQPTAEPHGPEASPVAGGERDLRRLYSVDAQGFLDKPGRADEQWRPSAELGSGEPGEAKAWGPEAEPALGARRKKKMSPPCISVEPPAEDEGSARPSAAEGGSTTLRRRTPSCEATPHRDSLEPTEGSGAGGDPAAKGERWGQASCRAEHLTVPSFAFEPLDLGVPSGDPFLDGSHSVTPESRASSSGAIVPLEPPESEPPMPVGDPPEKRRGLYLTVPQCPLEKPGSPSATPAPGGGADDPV

[13] = biological target: T4, Calpain-2 catalytic subunit (Sus scrofa, UniProt P43367); experiment: pig calpain II inhibitor potency, dose response, biochemical, fluorogenic peptide substrate (AID 1420); assay type: functional
T4 sequence (P43367 whole entry): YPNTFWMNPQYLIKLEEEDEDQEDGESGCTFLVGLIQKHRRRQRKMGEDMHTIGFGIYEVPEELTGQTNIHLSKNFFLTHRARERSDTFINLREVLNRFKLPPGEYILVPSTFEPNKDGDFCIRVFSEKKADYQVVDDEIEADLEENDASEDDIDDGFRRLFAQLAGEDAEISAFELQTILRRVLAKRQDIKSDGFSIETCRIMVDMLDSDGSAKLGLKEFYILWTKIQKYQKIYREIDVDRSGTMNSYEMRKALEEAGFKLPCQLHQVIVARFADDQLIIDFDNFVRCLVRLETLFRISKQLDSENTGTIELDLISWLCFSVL

Cytochrome P450 3A4 = Cytochrome P450 3A4 (Homo sapiens, UniProt P08684);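 also: CYP3A4 tested as one member of a cytochrome P450 panel screen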
Sequence of Cytochrome P450 3A4 (P08684 whole entry): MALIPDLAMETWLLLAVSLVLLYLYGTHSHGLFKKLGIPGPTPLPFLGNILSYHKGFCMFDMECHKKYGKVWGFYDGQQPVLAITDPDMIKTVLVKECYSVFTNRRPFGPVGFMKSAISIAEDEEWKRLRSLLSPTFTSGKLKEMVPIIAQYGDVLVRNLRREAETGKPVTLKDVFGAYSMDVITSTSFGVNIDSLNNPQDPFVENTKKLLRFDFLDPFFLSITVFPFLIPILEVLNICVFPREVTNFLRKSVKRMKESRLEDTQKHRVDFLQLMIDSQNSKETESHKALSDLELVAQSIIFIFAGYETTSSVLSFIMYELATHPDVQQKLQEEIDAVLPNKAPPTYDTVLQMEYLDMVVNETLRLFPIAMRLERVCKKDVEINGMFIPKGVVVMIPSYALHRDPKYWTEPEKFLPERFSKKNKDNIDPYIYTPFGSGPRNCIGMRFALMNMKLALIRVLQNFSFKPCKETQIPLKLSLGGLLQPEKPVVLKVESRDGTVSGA

H9c2 = experiment: cells; assay type: functional, cell-based; conditions: Rattus norvegicus, H9c2, Myocardium;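 also: confirmatory concentration-response retest of ultra-high-throughput screening hits for modulation of myocardial damage; cell death induced by hydrogen peroxide oxidative stress; compound pretreatment for 60 min then peroxide exposure for 2 h; potency is for protecting the cells against peroxide damage rather than for killing them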
[14] = HEp-2 cell cytotoxicity, dose response, cytotoxicity control for RSV inhibitor project, HTS (AID 2410); assay type: functional; conditions: human respiratory syncytial virus
[15] = biological target: T5, Short transient receptor potential channel 4 (Mus musculus, UniProt Q9QUQ5); experiment: mouse TRPC4 channel activators, dose response, cell-based, HEK293 TRPC4/mu-opioid, Fluo-4 calcium (AID 434937); assay type: functional
T5 sequence (Q9QUQ5 whole entry): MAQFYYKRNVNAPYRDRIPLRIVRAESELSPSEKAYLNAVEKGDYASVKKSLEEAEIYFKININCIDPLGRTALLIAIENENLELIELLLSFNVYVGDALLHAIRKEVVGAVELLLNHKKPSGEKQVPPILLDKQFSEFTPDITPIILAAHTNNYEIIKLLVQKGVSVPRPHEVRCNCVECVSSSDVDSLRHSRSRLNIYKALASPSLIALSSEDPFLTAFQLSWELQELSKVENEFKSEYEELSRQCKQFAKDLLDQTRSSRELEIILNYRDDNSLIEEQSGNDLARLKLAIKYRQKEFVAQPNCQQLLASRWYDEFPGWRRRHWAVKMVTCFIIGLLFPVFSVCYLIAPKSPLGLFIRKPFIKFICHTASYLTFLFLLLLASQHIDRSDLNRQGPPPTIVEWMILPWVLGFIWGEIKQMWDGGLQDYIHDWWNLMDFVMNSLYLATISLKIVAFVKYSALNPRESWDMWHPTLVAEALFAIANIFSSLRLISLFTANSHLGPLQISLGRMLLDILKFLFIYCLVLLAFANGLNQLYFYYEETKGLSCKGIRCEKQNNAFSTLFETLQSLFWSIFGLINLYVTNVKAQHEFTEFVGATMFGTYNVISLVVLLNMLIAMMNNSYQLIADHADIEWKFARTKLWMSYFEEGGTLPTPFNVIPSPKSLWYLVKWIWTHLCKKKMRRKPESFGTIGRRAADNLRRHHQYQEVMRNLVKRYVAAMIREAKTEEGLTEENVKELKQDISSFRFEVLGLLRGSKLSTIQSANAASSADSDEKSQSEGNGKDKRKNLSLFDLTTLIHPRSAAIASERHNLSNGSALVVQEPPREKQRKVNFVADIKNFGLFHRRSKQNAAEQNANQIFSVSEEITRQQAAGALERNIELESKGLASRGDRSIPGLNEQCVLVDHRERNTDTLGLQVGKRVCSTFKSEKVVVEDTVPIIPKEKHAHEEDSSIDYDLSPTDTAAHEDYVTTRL

[16] = microbe, parasite or virus in culture; assay type: functional; conditions: Mycobacterium tuberculosis

COC(=O)Cn1c(CN2CCN(c3ccc(F)cc3)CC2)nc2c1c(=O)n(C)c(=O)n2C
IC50 [1]: 3.59 µM (active)
IC50 [2]: 1.15 µM (active)

COc1cc(Br)cc2cc(C(=O)NCC3CCCO3)c(=O)oc12 (stereo not given)
AC50 (Cytochrome P450 2C9): inconclusive
AC50 (Cytochrome P450 1A2): 3.55 µM (inconclusive)

CN(C)c1nc(-c2ccccc2C(F)(F)F)nc2ccccc12
AC50 (Cytochrome P450 2C9): inconclusive

CN1C(=C2C(=O)OC(C)(C)OC2=O)Sc2ccccc21
AC50 (Cytochrome P450 2C9): inconclusive
EC50 [3]: 0.122 µM (active)
EC50 (H4): > 120 µM (not active)

O=C(O)CCC(=O)Nc1ccc(C(=O)OCC(=O)c2ccc(Cl)cc2Cl)cc1
AC50 [4]: > 100 µM (inactive)

CCNC(=O)c1ccc(-n2nc(C(F)(F)F)c3c2CCCC3)cc1
AC50 (Cytochrome P450 2D6): 8.91 µM (inconclusive)
AC50 (Cytochrome P450 2C9): inconclusive
AC50 (Cytochrome P450 1A2): 25.1 µM (inconclusive)
EC50 [5]: > 120 µM (not active)
EC50 [6]: 41.9 µM (active)
EC50 [7]: 18.1 µM (active)

CCCc1n[nH]c2c1C(C1CC=CCC1)C(C#N)=C(N)O2 (stereo not given)
CC50 (Vero): > 25 µM (active)
EC50 [8]: 139 µM (active)
EC50 [9]: 33.2 µM (active)

CC(C)(C)n1nnnc1C(c1cccs1)N(Cc1ccc(Cl)cc1)CC1CCCO1 (stereo not given)
EC50 [10]: 2.41 µM (active)
EC50 [11]: > 60 µM (not active)
EC50 [12]: 8.19 µM (active)

Cc1cccc(-n2nnc(C(=O)NC3CCCc4ccccc43)c2N)c1 (stereo not given)
AC50 (Cytochrome P450 2D6): 7.94 µM (inconclusive)
IC50 [13]: 7.05 µM (not active)
AC50 (Cytochrome P450 2C9): inconclusive
AC50 (Cytochrome P450 1A2): 15.8 µM (inconclusive)
AC50 (Cytochrome P450 3A4): 1.12 µM (inconclusive)

Cc1nccn1CC1CCc2c(c3ccccc3n2C)C1=O (stereo not given)
IC50 [1]: 1.67 µM (active)
IC50 [2]: 1.35 µM (active)

CCc1nnc(NS(=O)(=O)c2ccc(NC(=O)c3ccc(Br)cc3)cc2)s1
IC50 [1]: 4.45 µM (active)
IC50 [2]: 10 µM (active)

COc1ccccc1CN(Cc1nc(O)c2ccccc2n1)S(=O)(=O)c1ccc2ccccc2c1
CC50 (Vero): > 25 µM (active)
EC50 [8]: 17.4 µM (active)
EC50 [9]: 16.7 µM (active)
IC50 (H9c2): 20.5 µM (active)

Cc1ccc(N2CCN(C(=O)CCc3nc4ccccc4[nH]3)CC2)c(C)c1
EC50 [12]: 3.27 µM (active)
CC50 [14]: 13.6 µM (active)

Cc1sc[n+](CC(=O)c2ccc(Br)cc2)c1C
IC50 [1]: 8.46 µM (active)
IC50 [2]: 3.76 µM (active)

Cc1cccc(OCCCSc2nc3ccc(C)cc3[nH]2)c1
IC50 [13]: 24.9 µM (not active)
EC50 [12]: 3.92 µM (active)

Cc1nn2c(NCCOCCO)c3c(nc2c1-c1ccccc1)CCCC3
IC50 [1]: 3.43 µM (active)
IC50 [2]: 11.2 µM (active)

Nc1ccc2c3c(cccc13)C(=O)NC2=O
AC50 (Cytochrome P450 2C9): inconclusive
AC50 (Cytochrome P450 3A4): 3.16 µM (inconclusive)

Cn1c(=O)c(C#N)c(-c2ccc(F)cc2)c2cc(C(=O)c3cc(Cl)cc(Cl)c3O)cnc21
IC50 [1]: 6.95 µM (active)
IC50 [2]: 7.08 µM (active)

Cc1ccc(SCCC(=O)NCCSCc2ccccc2C)cc1
EC50 [12]: 2.87 µM (active)

CCN(CC)S(=O)(=O)c1ccc2oc(C(=O)NCc3ccc(F)cc3)c(C)c2c1
EC50 [12]: 3.18 µM (active)

O=C(Nc1ccccc1C(=O)NCCCn1ccnc1)c1ccccc1
IC50 [1]: 5.59 µM (active)
IC50 [2]: 1.5 µM (active)

COc1cc(OC)cc(C(=O)NC(=S)NNC(=O)[C@H]2C[C@@H]2c2ccccc2)c1
CC50 (Vero): 23.8 µM (active)
EC50 [15]: 2.99 µM (active)

COc1cccc(NC(=O)C2CCN(Cc3cnn(-c4ccccc4)c3-n3cccc3)CC2)c1
CC50 [16]: 14.6 µM (active)
EC50 [12]: 2.29 µM (active)

Cc1ccccc1NS(=O)(=O)c1cc(C(=O)Nc2ccccc2-c2ccccc2)ccc1Cl
EC50 [12]: 3.95 µM (active)
